Test results reported in patent EP3436445B1, “HISTONE DEMETHYLASE INHIBITORS” (Celgene Quanticel Research, Inc., priority 2016, dated 2017).

How the values were obtained:
FBXL10 = target: T1, FBXL10 (Homo sapiens, UniProt Q8NHM5); experiment: FBXL10 in vitro enzyme inhibition assay (AlphaScreen); assay type: biochemical; settings: Table 3; 0.3 nM FBXL10, H3K36me2-biotin labeled peptide
T1 construct: purchased BPS Bioscience 50120
T1 sequence (Q8NHM5 1-650): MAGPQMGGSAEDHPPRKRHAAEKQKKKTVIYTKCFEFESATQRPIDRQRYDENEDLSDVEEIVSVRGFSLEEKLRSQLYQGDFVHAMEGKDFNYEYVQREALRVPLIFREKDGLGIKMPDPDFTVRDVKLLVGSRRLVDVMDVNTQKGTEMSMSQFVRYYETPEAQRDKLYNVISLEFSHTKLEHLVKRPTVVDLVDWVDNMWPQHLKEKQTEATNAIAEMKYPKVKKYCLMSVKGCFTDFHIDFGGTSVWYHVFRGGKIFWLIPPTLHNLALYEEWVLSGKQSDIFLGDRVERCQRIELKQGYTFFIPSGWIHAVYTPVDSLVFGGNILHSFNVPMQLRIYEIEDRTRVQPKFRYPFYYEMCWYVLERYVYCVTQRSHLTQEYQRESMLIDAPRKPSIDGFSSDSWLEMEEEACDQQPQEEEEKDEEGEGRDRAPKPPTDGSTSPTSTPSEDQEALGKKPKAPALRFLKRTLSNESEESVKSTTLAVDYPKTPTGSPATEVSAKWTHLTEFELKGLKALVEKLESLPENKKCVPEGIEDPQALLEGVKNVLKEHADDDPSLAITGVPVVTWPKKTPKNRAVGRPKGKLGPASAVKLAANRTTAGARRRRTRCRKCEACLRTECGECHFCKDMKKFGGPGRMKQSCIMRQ
Excerpt: (§1) This assay determines the ability of a test compound to inhibit FBXL11, FBXL10, and PHF8 demethylase activity. Baculovirus expressed FBXL11 (GenBank Accession #NM_012308, AA1-1162) was purchased from BPS Bioscience (Cat#50102). Baculovirus expressed FBXL10 (GenBank Accession #NM_032590, AA 1-650) was purchased from BPS Bioscience (Cat #50120). Baculovirus expressed PHF8 (GenBank Accession NP_055922.1) was purchased from Active Motif (Cat#31435).
The ability of test compounds to inhibit the activity of FBXL10 was determined in 384-well plate format under the following reaction conditions: 0.3 nM FBXL10, 30 nM H3K36me2-biotin labeled peptide (Anaspec cat # 64442), 0.2 µM alpha-ketoglutaric acid in assay buffer of 50 mM HEPES, pH7.3, 0.005% Brij35, 0.5 mM TCEP, 0.2 mg/ml BSA, 50 µM sodium L-ascorbate, 5 µM ammonium iron(II) sulfate. Reaction product is determined quantitatively by AlphaScreen detection after the addition of detection reagents anti-H3K36me1 antibody, AlphaScreen® Streptavidin-coated Donor beads, and AlphaScreen® Protein A Acceptor beads in 50 mM HEPES, pH7.3, 10 mM NaCl, 0.005% Brij35, 5 mM EDTA, 2 mg/ml BSA to final 10 µg/ml beads.
The assay reaction was initiated by the following: 3 µl of the mixture of 90 nM H3K36me2-biotin labeled peptide and 0.6 µM alpha-ketoglutaric acid with 3 µl of 11-point serial diluted inhibitor in 3% DMSO are added to each well of 384 well Proxiplate (Perkin Elmer), followed by the addition of 3 µl of 0.9 nM FBXL10 to initiate the reaction. The reaction mixture is incubated at room temperature for 1 hour, and terminated by the addition of 3 µl of appropriate dilution of anti H3K36me1 antibody in 50 mM HEPES, pH7.3, 10 mM NaCl, 0.005% Brij35, 5 mM EDTA, 2 mg/ml BSA. Plates will then incubated at room temperature for 40 minutes, followed by addition of 3 µl of 50 µg/ml AlphaScreen® Streptavidin-coated Donor beads and AlphaScreen® Protein A Acceptor beads in 50 mM HEPES, pH7.3, 10 mM NaCl, 0.005% Brij35, 5 mM EDTA, 2 mg/ml BSA. Plates will then be read by EnVision Multilabel Reader in AlphaScreen mode after minimum 2 hour incubation at room temperature. The AlphaScreen signal for each well is used to determine inhibition constant (IC50).

PHF8 = target: T2, PHF8 (Homo sapiens, UniProt Q9UPP1); experiment: PHF8 in vitro enzyme inhibition assay (TR-FRET); assay type: biochemical; settings: Table 3; 3 nM PHF8, H3K9me1-biotin labeled peptide
T2 construct: purchased Active Motif 31435
Excerpt: as §1
The ability of test compounds to inhibit the activity of PHF8 was determined in 384-well plate format under the following reaction conditions: 3 nM PHF8, 200 nM H3K9me1-biotin labeled peptide (Anaspec cat #64358), 0.5 µM alpha-ketoglutaric acid in assay buffer of 50 mM HEPES, pH7.3, 0.005% Brij35, 0.5 mM TCEP, 0.2 mg/ml BSA, 50 µM sodium L-ascorbate, and 5 µM ammonium iron(II) sulfate. Reaction product was determined quantitatively by TR-FRET after the addition of detection reagent Phycolink Streptavidin-allophycocyanin (Prozyme) and Europium-anti-unmodified-histone H3 lysine 9/lysine27 (H3K9/K27) antibody (PerkinElmer) in the presence of 5 mM EDTA in LANCE detection buffer (PerkinElmer) at a final concentration of 25 nM and 0.5 nM, respectively.
The assay reaction was initiated by the following: 2 µl of the mixture of 600 nM H3K9me1-biotin labeled peptide and 1.5 µM alpha-ketoglutaric acid with 2 µl of 11-point serial diluted inhibitor in 3% DMSO were added to each well of the plate, followed by the addition of 2 µl of 9 nM PHF8 to initiate the reaction. The reaction mixture was incubated at room temperature for 15 minutes, and terminated by the addition of 6 µl of 5 mM EDTA in LANCE detection buffer containing 50 nM Phycolink Streptavidin-allophycocyanin and 1 nM Europium-anti-unmodified H3K9/K27 antibody. Plates were read by EnVision Multilabel Reader in TR-FRET mode (excitation at 320 nm, emission at 615 nm and 665 nm) after 1 hour incubation at room temperature. A ratio was calculated (665/615) for each well and fitted to determine inhibition constant (IC50).

[1] = test system: KDM2B-bound genes of the established Mia Paca-2 cancer cell line; experiment: Mia Paca-2 pancreatic cell line expression assay for KDM2B-related genes (real-time PCR); assay type: cell-based; settings: Homo sapiens; Table 4; Mia Paca-2 cells; read-out: Cellular IC50
Excerpt: Gene expression assay to assess the ability of KDM2B small molecule inhibitors to activate the expression of KDM2B-bound genes of the established Mia Paca-2 cancer cell line.
This gene expression assay is a real-time PCR assay which quantifies the amount of messenger RNA from genes that are normally repressed by KDM2B interacting with EZH2 compared with a control GAPDH gene whose expression is not regulated by KDM2B. The amount of gene expression is correlated to the amount of small molecule inhibition of KDM2B's enzymatic activity.
The established cancer cell line Mia Paca-2 was purchased from American Type Culture Collection (ATCC) and routinely passaged according to ATCC published protocols. Cells were seeded at a density of 40,000 per 96-well. 24 hours after plating, cells received final concentrations of 20nM, 40nM, 80nM and 320nM of test compound. […] At the end of each of the compound incubation period, media was removed and cells were trypsinized according to the ATCC published protocol. mRNA was then harvested from the cell samples using a RNeasy kit (Qiagen). mRNA was quantified and qualified using a Nanodrop machine (Thermo Scientific). mRNA was converted to cDNA using the High-Capacity cDNA Reverse Transcription Kit (Applied Biosystems). […] Data was analyzed using the delta-delta Ct method to calculate fold enrichment over DMSO sample gene expression.

T2 sequence (Q9UPP1 37-1060): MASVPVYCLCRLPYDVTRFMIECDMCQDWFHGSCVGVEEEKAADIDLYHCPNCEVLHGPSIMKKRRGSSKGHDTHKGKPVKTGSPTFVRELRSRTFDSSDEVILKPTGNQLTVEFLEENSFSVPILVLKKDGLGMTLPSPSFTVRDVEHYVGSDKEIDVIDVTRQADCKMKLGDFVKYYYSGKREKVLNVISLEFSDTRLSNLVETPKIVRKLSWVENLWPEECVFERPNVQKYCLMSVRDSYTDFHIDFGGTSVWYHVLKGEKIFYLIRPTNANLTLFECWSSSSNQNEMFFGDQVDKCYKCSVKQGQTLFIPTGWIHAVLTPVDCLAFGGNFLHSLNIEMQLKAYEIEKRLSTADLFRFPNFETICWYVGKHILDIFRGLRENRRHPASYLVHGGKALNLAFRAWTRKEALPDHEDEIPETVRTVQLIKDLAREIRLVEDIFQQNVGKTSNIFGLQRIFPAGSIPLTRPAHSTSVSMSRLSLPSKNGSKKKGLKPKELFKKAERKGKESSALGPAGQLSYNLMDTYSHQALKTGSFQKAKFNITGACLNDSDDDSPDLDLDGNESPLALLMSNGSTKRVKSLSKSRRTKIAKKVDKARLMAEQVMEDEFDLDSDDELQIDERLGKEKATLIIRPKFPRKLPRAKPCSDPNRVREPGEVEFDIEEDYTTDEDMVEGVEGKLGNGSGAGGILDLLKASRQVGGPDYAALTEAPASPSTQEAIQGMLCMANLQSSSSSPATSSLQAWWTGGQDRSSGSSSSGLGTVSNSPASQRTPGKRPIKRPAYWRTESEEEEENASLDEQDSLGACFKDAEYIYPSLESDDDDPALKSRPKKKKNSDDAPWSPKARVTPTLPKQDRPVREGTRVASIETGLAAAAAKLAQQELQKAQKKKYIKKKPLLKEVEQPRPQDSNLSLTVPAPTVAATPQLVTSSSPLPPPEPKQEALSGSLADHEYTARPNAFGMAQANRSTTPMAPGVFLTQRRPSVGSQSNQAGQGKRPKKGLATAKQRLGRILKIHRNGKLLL

SMILES | IC50 (FBXL10) | IC50 (PHF8) | IC50 [1]
CC(Cc1ccccc1)n1cnc(-c2cc(-c3c[nH]nn3)ccn2)c1 (stereo not drawn) [Example 33, 2-[1-(1-phenylpropan-2-yl)imidazol-4-yl]-4-(1H-triazol-4-yl)pyridine] | 100 to 1000 nM | – | –
FC(F)(F)c1[nH]nnc1-c1ccnc(-c2cn(CCc3cccc4ccccc34)cn2)c1 [Example 37, 2-[1-(2-naphthalen-1-ylethyl)imidazol-4-yl]-4-[5-(trifluoromethyl)-1H-triazol-4-yl]pyridine] | – | – | 100 to 1000 nM
Cn1cnc(-c2cc(-c3nn[nH]c3F)ccn2)c1-c1ccc(F)cc1OCC1CC1 [Example 41, 2-[5-[2-(cyclopropylmethoxy)-4-fluorophenyl]-1-methylimidazol-4-yl]-4-(5-fluoro-1H-triazol-4-yl)pyridine] | – | – | 1000 to 10000 nM
Clc1cc(Cl)cc(-n2cnc(-c3cc4[nH]nnc4cn3)c2)c1 [Example 52, 1-(3,5-dichlorophenyl)-4-{1H-[1,2,3]triazolo[4,5-c]pyridin-6-yl}-1H-imidazole] | 100 to 1000 nM | 1000 to 10000 nM | –
Cn1cnc(-c2cc3[nH]nnc3cn2)c1-c1ccc(F)cc1 [Example 53, 5-(4-fluorophenyl)-1-methyl-4-{1H-[1,2,3]triazolo[4,5-c]pyridin-6-yl}-1H-imidazole] | 100 to 1000 nM | 1000 to 10000 nM | –

Now from value to compound:

IC50 (FBXL10) | IC50 (PHF8) | IC50 [1] | SMILES
100 to 1000 nM | – | – | Fc1c(Cn2cnc(-c3cc(-c4c[nH]nn4)ccn3)c2)cccc1OC(F)(F)F [Example 26, 2-[1-[[2-fluoro-3-(trifluoromethoxy)phenyl]methyl]imidazol-4-yl]-4-(1H-triazol-4-yl)pyridine]
100 to 1000 nM | – | – | c1ccc(-c2ccccc2CCn2cnc(-c3cc(-c4c[nH]nn4)ccn3)c2)cc1 [Example 27, 2-[1-[2-(2-phenylphenyl)ethyl]imidazol-4-yl]-4-(1H-triazol-4-yl)pyridine]
≤ 100 nM | 100 to 1000 nM | – | FC(F)(F)Oc1ccccc1CCn1cnc(-c2cc(-c3c[nH]nn3)ccn2)c1 [Example 34]
≤ 100 nM | 1000 to 10000 nM | – | c1nc(-c2cn(CC3CC3)cn2)cc2[nH]nnc12 [Example 42, 1-(cyclopropylmethyl)-4-{1H-[1,2,3]triazolo[4,5-c]pyridin-6-yl}-1H-imidazole]
≤ 100 nM | 100 to 1000 nM | – | Clc1ccccc1Cn1cnc(-c2cc(-c3cn[nH]n3)ccn2)c1Br [Example 55, 2-(5-bromo-1-(2-chlorobenzyl)-1H-imidazol-4-yl)-4-(2H-1,2,3-triazol-4-yl)pyridine]
